The source of these data is ChEMBL document CHEMBL1131813, “9-Deoxopodophyllotoxin derivatives as anti-cancer agents” (1999).

Holding throughout (conditions): Homo sapiens
The subject of one experiment is NCI/ADR-RES. In words: In vitro cytotoxic activity against ADR resistant breast cancer (MCF-7-ADR) cell line. It counts as functional.
For a further experiment, the system named is DU-145. In words: In vitro cytotoxic activity against prostate (DU-145) cancer cell line. It counts as functional.
The subject of another experiment is SK-OV-3. Nature of the experiment: In vitro cytotoxic activity against Ovarian (SK-OV3) cell line. It counts as functional.
The subject of the next experiment is M14. In words: In vitro cytotoxic activity against melanoma (M 14) cancer cell line. It counts as functional.
For a further experiment, the system named is NCI-H522. In words: In vitro cytotoxic activity against lung (H 522) cancer cell line.
For another experiment, the system named is A498. Nature of the experiment: In vitro cytotoxic activity against renal (A 498) cancer cell line. It counts as functional.
The test system of another experiment is SW-620. Nature of the experiment: In vitro cytotoxic activity against colon (SW 620) cancer cell line. It counts as functional.

The structures appear in SMILES notation. A value given as a limit tells only on which side of the number the result lay.

On to `COc1cc([C@@H]2c3cc4c(cc3[C@H](O)[C@H]3COC(OCCO)[C@H]23)OCO4)cc(OC)c1OC` (stereo not given in full), for which the GI50 – broadly, the concentration that inhibits growth by half – was 70 µM with NCI/ADR-RES; 20 µM in the experiment on DU-145; 0.09 µM in the experiment with SK-OV-3; 60 µM in the experiment with M14; 10 µM in the experiment with NCI-H522; 0.01 µM in the experiment with A498. In addition, the concentration for 50% growth inhibition (GI50) in the experiment with SW-620 came to 70 µM.

Regarding `COc1cc([C@@H]2c3cc4c(cc3[C@H](O)[C@H]3COC(CC(C)=O)[C@H]23)OCO4)cc(OC)c1OC` (stereo not given in full), the GI50 was 60 µM with NCI/ADR-RES; 20 µM in the experiment with DU-145; 6 µM with SK-OV-3; 20 µM in the experiment on M14; 20 µM in the experiment on NCI-H522; 0.02 µM with A498. The same compound yielded a concentration for 50% growth inhibition (GI50) in the experiment on SW-620 of 60 µM.

As to `COC(=O)CC1OC[C@H]2[C@H]1[C@H](c1cc(OC)c(OC)c(OC)c1)c1cc3c(cc1[C@@H]2O)OCO3` (stereo not given in full), the concentration for 50% growth inhibition (GI50) in the experiment on NCI/ADR-RES was 70 µM; in the experiment on DU-145, 60 µM; in the experiment on SK-OV-3 it was 4 µM; in the experiment on M14, above 100 µM; with NCI-H522, 8 µM; in the experiment on A498, below 0.01 µM. Further, in the experiment on SW-620, the concentration for 50% growth inhibition (GI50) stood at 70 µM.

For `COc1cc([C@@H]2c3cc4c(cc3[C@@H](O)[C@H]3COC(CC(C)=O)[C@@H]23)OCO4)cc(OC)c1O` (stereo not given in full), the GI50 with NCI/ADR-RES came out at 0.8 µM; in the experiment with DU-145 it was 0.1 µM; in the experiment on SK-OV-3, 0.3 µM; in the experiment on M14, 0.8 µM; in the experiment on NCI-H522 it was 0.8 µM; with A498, 0.08 µM. For the same compound, growth in the experiment on SW-620 was halved (GI50) at 0.1 µM.

As to `COc1cc([C@@H]2c3cc4c(cc3[C@H](O)[C@H]3COC(CCO)[C@H]23)OCO4)cc(OC)c1OC` (stereo not given in full), the GI50 with NCI/ADR-RES was above 100 µM; in the experiment with DU-145 it was 0.5 µM; in the experiment on SK-OV-3 it was 0.8 µM; with M14, above 100 µM; in the experiment on NCI-H522 it was 0.05 µM; in the experiment with A498, 0.05 µM. In the experiment on SW-620, the GI50 is above 100 µM.

Turning to `COC(=O)CC1OC[C@H]2[C@H]1[C@H](c1cc(OC)c(O)c(OC)c1)c1cc3c(cc1[C@H]2O)OCO3` (stereo not given in full), the GI50 is 60 µM in the experiment with NCI/ADR-RES; above 100 µM in the experiment on DU-145; 0.5 µM in the experiment with SK-OV-3; above 100 µM in the experiment on M14; 9 µM with NCI-H522; above 100 µM in the experiment on A498. Also, the 50% growth inhibitory concentration (GI50) in the experiment with SW-620 came to 20 µM.

In the case of `COc1cc([C@@H]2c3cc4c(cc3[C@H](O)[C@H]3COC(OCCF)[C@H]23)OCO4)cc(OC)c1OC` (stereo not given in full), the GI50 in the experiment with NCI/ADR-RES was 50 µM; in the experiment with DU-145, 80 µM; in the experiment with SK-OV-3, above 100 µM; in the experiment on M14, 60 µM; in the experiment on NCI-H522 it was 80 µM; in the experiment on A498, 80 µM. In addition, growth with SW-620 was halved (GI50) at 70 µM.

Turning to `COCCOC1OC[C@H]2[C@H]1[C@H](c1cc(OC)c(OC)c(OC)c1)c1cc3c(cc1[C@@H]2O)OCO3` (stereo not given in full), the concentration for 50% growth inhibition (GI50) was above 100 µM in the experiment on NCI/ADR-RES; 7 µM in the experiment on DU-145; 20 µM in the experiment on SK-OV-3; above 100 µM with M14; 0.09 µM in the experiment on NCI-H522; 0.05 µM in the experiment on A498. The same compound registered a GI50 in the experiment on SW-620 of 80 µM.

As for `COc1cc([C@@H]2c3cc4c(cc3[C@@H](O[C@@H]3O[C@@H]5CO[C@@H](C)O[C@H]5[C@H](O)[C@H]3O)[C@H]3COC(=O)[C@H]23)OCO4)cc(OC)c1O` [ETOPOSIDE], the 50% growth inhibitory concentration (GI50) in the experiment with NCI/ADR-RES was 25 µM; with DU-145, 2 µM; in the experiment on SK-OV-3 it was below 0.01 µM; in the experiment with M14, below 0.01 µM; with NCI-H522, 0.9 µM; in the experiment on A498 it was 8 µM. Besides, in the experiment with SW-620, it took 90 µM to inhibit growth by half (GI50).

In the case of `COc1cc([C@@H]2c3cc4c(cc3[C@H](O)[C@H]3COC(=O)[C@H]23)OCO4)cc(OC)c1OC` [PODOFILOX], the GI50 in the experiment on NCI/ADR-RES was 0.6 µM; in the experiment on DU-145 it was 0.04 µM; in the experiment with SK-OV-3, 0.9 µM; with M14 it was 0.07 µM; with NCI-H522, 0.7 µM; in the experiment with A498, 0.08 µM. In the experiment with SW-620, the GI50 is 2 µM.
